No end group written: not given here.
Columns and labels:
[1] = tested on: human sperm; test: Spermicidal activity, sperm motility by light microscopy; format: cell-based; conditions: human sperm in phosphate buffered saline, room temperature
Experimental: Magainin II(g) was added in various concentrations to a suspension of human sperm in phosphate buffered saline. Motility was assayed by visual inspection under a light microscope. Observations were conducted at room temperature (about 22°-25° C.). The approximate number of motile sperm observed in 20 independent fields was noted as a function of concentration. Magainin II(g) inhibits sperm motility by 50% at 35 μg/ml and by 100% at 75 μg/ml.

[2] = tested on: Vero Cells; test: Cytotoxicity by loss of Trypan Blue exclusion; format: cell-based, monkey; conditions: 30 minutes after addition, MEM with 10% fetal calf serum
Description: (§1) This activity is considered a significant attribute of the Magainin peptides in that it permits their use in the killing of animal cells. […] The most resistant appears to be the epithelial cell from the oral mucosa. The most sensitive is a transformed monkey kidney cell. […] This includes anti-tumor activity, in vivo cytolysis or growth inhibition of malignant cells, such as in leukemias and selective reduction in specific cell populations (e.g., removal of lymphocytes from blood).
(§2) Cells were suspended in standard minimal Eagles medium containing 10% fetal calf serum. VERO cells and KB cells were obtained from the American Type Culture Collection. Human diploid fibroblasts were propagated from a primary dermal biopsy. Human lymphocytes were collected from a buffy coat preparation by centrifugation in ficoll-hyapaque medium. Human buccal epithelium was obtained by scraping the oral mucosa with a glass cover-slip and resuspending the cellular scraping in MEM. Cytotoxicity was determined by loss of Trypan Blue exclusion, following addition of dye to the medium. Cytotoxicity was assessed 30 minutes after addition of the peptide. Concentration noted represents the concentration of peptide resulting in 50% toxicity as determined visually by light microscopic examination of the treated cells.

[3] = tested on: Human KB Cells; test: Cytotoxicity by loss of Trypan Blue exclusion; format: cell-based; conditions: 30 minutes after addition
Description: as §1, §2

[4] = tested on: Human Buccal Epithelial Cells; test: Cytotoxicity by loss of Trypan Blue exclusion; format: cell-based; conditions: 30 minutes after addition
Description: as §1, §2

[5] = tested on: Human Diploid Fibroblasts; test: Cytotoxicity by loss of Trypan Blue exclusion; format: cell-based; conditions: 30 minutes after addition
Description: as §1, §2

[6] = tested on: Peripheral Human Lymphocytes; test: Cytotoxicity by loss of Trypan Blue exclusion; format: cell-based; conditions: 30 minutes after addition
Description: as §1, §2

[7] = tested on: E. coli Y1088; test: Zone of inhibition on lawn of E. coli Y1088; format: cell-based
[8] = tested on: Plasmodium gallinaceum; test: Activity against malarial parasite, direct light microscopy; format: cell-based; conditions: 100 ug/ml in phosphate buffered saline, within seconds
Experimental: Observations of activity were conducted by direct light microscopy. A sample of female and male zygotic forms of the chicken malarial parasite were suspended in phosphate buffered saline. Magainin II(g) was added to each at 100 ug/ml.

[9] = tested on: HTLV III; test: Anti-viral activity against HTLV III in SUPT1 tester cells; format: cell-based; conditions: 200 μg/ml, virus preincubated 37° C. 30 min
Experimental: HTLV III was obtained from culture media from the producing cell line A.3101. The media was diluted with MEM containing 10% fetal calf serum (FCS) to a viral concentration of about 10^4 pfu/ml. Magainin II(g) was added to the viral innoculum (1 ml) to a concentration of 200 μg/ml and incubated at 37° C. for 30 min. The viral innoculum was then added to a well containing 10^3 tester cells (cell line, SUPT1) and 1 ml of MEM with 10% FCS. Viral activity was assessed by formation of syncytia and cell death in the test cell culture as compared with cell cultures unexposed to Magainin peptides.

[10] = tested on: E. coli D-31; test: Comparison of potencies, MIC (Table V); format: cell-based; conditions: E. coli D-31 (Table V)
Description: (§3) It is pointed that the addition of a carboxyl-terminal amide to Magainin II results in about a 5-fold increase in potency of the peptide in several systems when compared to Magainin II. This simple modification illustrates one of several ways of modifying the polypeptides of the present invention.

[11] = tested on: Pseudomonas aeruginosa; test: Comparison of potencies, MIC (Table V); format: cell-based
Description: as §3

[12] = tested on: Saccharomyces cerviscae; test: Comparison of potencies, MIC (Table V); format: cell-based
Description: as §3

[13] = tested on: Acanthomeba castellani; test: Comparison of potencies, MIC (Table V); format: cell-based
Description: as §3

[14] = tested on: Amoeba proteus; test: Antiprotozoan activity, physical lysis by light microscopy; format: cell-based; conditions: approximate concentration, visual assessment by light microscopy
Description: (§4) Table IV lists the approximate concentration of Magainins which induces physical lysis of several representative protozoan species. These determinations were made by visual assessment of the treated organisms by light microscopy. Of course, the optimal effective antimicrobial concentration of a particular Magainin can be easily determined in a routine manner without undue experimentation by techniques well known to one of ordinary skill in the art.

[15] = tested on: Paramecium caudatum; test: as above; format: cell-based; conditions: approximate concentration, visual assessment by light microscopy
Description: as §4

[16] = tested on: Euglena gracilis; test: as above; format: cell-based; conditions: approximate concentration, visual assessment by light microscopy
Description: as §4

[17] = tested on: Proteus vulgaris (13315); test: Minimal inhibitory concentration in trypticase soy broth; format: cell-based
Description: (§5) Table III also lists the range of minimal inhibitory concentrations for various organisms assayed in trypticase soy broth. These determinations were made following standard techniques well known in the art and described in such publications as, DIFCO Manual, 10th edition, 1984, pages 78-80.

[18] = tested on: Eschericia coli (25922); test: as above; format: cell-based
Description: as §5

[19] = tested on: Eschericia coli D31; test: as above; format: cell-based
Description: as §5

[20] = tested on: Candida albicans (14053); test: as above; format: cell-based
Description: as §5

[21] = tested on: Salmonella typhimurium (14028); test: as above; format: cell-based
Description: as §5

[22] = tested on: Acinetobacter caloaceticus (19606); test: as above; format: cell-based
Description: as §5

[23] = tested on: Serratia marcescens (8100); test: as above; format: cell-based
Description: as §5

[24] = tested on: Staphylococcus aureus (25923); test: as above; format: cell-based
Description: as §5

[25] = tested on: Shigella sonnei (25931); test: as above; format: cell-based
Description: as §5

[26] = tested on: Staphyloccus epidermidis (1228); test: as above; format: cell-based
Description: as §5

[27] = tested on: Citrobacter freundii (8090); test: as above; format: cell-based
Description: as §5

[28] = tested on: Pseudomonas aeruginosa (27853); test: as above; format: cell-based
Description: as §5

[29] = tested on: Enterobacter aerogenes (13048); test: as above; format: cell-based
Description: as §5

[30] = tested on: Streptococcus pyogenes (19615); test: as above; format: cell-based
Description: as §5

[31] = tested on: Streptococcus faecalis (19433); test: as above; format: cell-based
Description: as §5

[32] = tested on: Enterobacter sonnei (23355); test: as above; format: cell-based
Description: as §5

[33] = tested on: Shigella flexneri (12022); test: as above; format: cell-based
Description: as §5

[34] = tested on: Klebisiella pneumonia (13883); test: as above; format: cell-based
Description: as §5

Substance	Zone of Inhibition on Lawn of E. coli Y1088 Generated by 50 μg of the Peptide [7]	Concentration required for osmotic lysis [14]	Concentration required for osmotic lysis [15]	Concentration required for osmotic lysis [16]	Minimal Inhibitory Concentration [17]	Minimal Inhibitory Concentration [18]	Minimal Inhibitory Concentration [19]	Minimal Inhibitory Concentration [20]	Minimal Inhibitory Concentration [21]	Minimal Inhibitory Concentration [22]	Minimal Inhibitory Concentration [23]	Minimal Inhibitory Concentration [24]	Minimal Inhibitory Concentration [26]	Minimal Inhibitory Concentration [27]	Minimal Inhibitory Concentration [28]	Minimal Inhibitory Concentration [29]	Minimal Inhibitory Concentration [30]	Minimal Inhibitory Concentration [31]	also measured
GIGKFLHSAKKFGKAFVGEIMNS-NH2 [Magainin II(g)]	15 mm	–	–	–	–	–	–	–	–	–	–	–	–	–	–	–	–	–	Concentration that inhibits sperm motility by 50% [1]: 35 µg/mL; Concentration that inhibits sperm motility by 100% [1]: 75 µg/mL; Concentration of peptide resulting in 50% toxicity [2]: 25 µg/mL; Concentration of peptide resulting in 50% toxicity [3]: 125 µg/mL; Concentration of peptide resulting in 50% toxicity [4]: 500 µg/mL; Concentration of peptide resulting in 50% toxicity [5]: 250 µg/mL; Concentration of peptide resulting in 50% toxicity [6]: 75 µg/mL; Effect on female and male zygotic forms of Plasmodium gallinaceum [8]: both forms underwent evident physical lysis; Reverse transcriptase activity in culture fluids [9]: no greater reverse transcriptase activity than uninfected cells; Viral activity by formation of syncytia and cell death in test cell culture ([9]; 2 weeks incubation): appeared identical to cultures not exposed to virus; MIC [10]: 2 µg/mL; MIC [11]: 15 µg/mL; MIC [12]: 10 µg/mL; MIC [13]: 3 µg/mL
HSAKKFGKAFVGEIMNS [Magainin II(f), (NH2)HSAKKFGKAFVGEIMNS(OH)]	0 mm	–	–	–	–	–	–	–	–	–	–	–	–	–	–	–	–	–	Effect on female and male zygotic forms of Plasmodium gallinaceum [8]: no visible effect
GIGKFLHSAKKFGKAFVGEIMNS [Magainin II]	–	5 µg/mL	5 µg/mL	5 µg/mL	> 100 µg/mL	1 to 7 µg/mL	1 to 10 µg/mL	35 to 70 µg/mL	35 to 70 µg/mL	1 to 7 µg/mL	> 100 µg/mL	35 to 70 µg/mL	7 to 35 µg/mL	7 to 35 µg/mL	35 to 70 µg/mL	7 to 35 µg/mL	1 to 7 µg/mL	35 to 70 µg/mL	Minimal Inhibitory Concentration [25]: 1 to 7 µg/mL; Minimal Inhibitory Concentration [32]: 1 to 7 µg/mL; MIC [10]: 10 µg/mL; MIC [11]: 70 µg/mL; MIC [12]: 50 µg/mL; MIC [13]: 15 µg/mL
GIGKFLHSAGKFGKAFVGEIMKS [Magainin I]	–	5 µg/mL	5 µg/mL	5 µg/mL	> 100 µg/mL	7 to 35 µg/mL	1 to 20 µg/mL	> 100 µg/mL	> 100 µg/mL	7 to 35 µg/mL	> 100 µg/mL	> 100 µg/mL	> 100 µg/mL	> 100 µg/mL	> 100 µg/mL	> 100 µg/mL	7 to 35 µg/mL	> 100 µg/mL	Minimal Inhibitory Concentration [33]: 35 to 70 µg/mL; Minimal Inhibitory Concentration [34]: > 100 µg/mL
FLHSAKKFGKAFVGEIMNS [Magainin II(d), (NH2)FLHSAKKFGKAFVGEIMNS(OH)]	2 mm	–	–	–	–	–	–	–	–	–	–	–	–	–	–	–	–	–	–
GKFLHSAKKFGKAFVGEIMNS [Magainin II(b)]	10 mm	–	–	–	–	–	–	–	–	–	–	–	–	–	–	–	–	–	–
KFLHSAKKFGKAFVGEIMNS [Magainin II(c)]	10 mm	–	–	–	–	–	–	–	–	–	–	–	–	–	–	–	–	–	–
GIGKYLHSAKKFGKAFVGEIMNS-NH2 [Magainin II(h)]	7 mm	–	–	–	–	–	–	–	–	–	–	–	–	–	–	–	–	–	–
LHSAKKFGKAFVGEIMNS [Magainin II(e), (NH2)LHSAKKFGKAFVGEIMNS(OH)]	1 mm	–	–	–	–	–	–	–	–	–	–	–	–	–	–	–	–	–	–
GIGKFLHSAKKFGKAFVGEIMN [Magainin III]	–	5 µg/mL	5 µg/mL	5 µg/mL	> 100 µg/mL	7 to 35 µg/mL	1 to 10 µg/mL	> 100 µg/mL	35 to 70 µg/mL	7 to 35 µg/mL	> 100 µg/mL	> 100 µg/mL	35 to 70 µg/mL	7 to 35 µg/mL	35 to 70 µg/mL	> 100 µg/mL	7 to 35 µg/mL	> 100 µg/mL	Minimal Inhibitory Concentration [34]: > 100 µg/mL

From patent publication US5643876A, “Biologically active synthetic magainin peptides” (The United States of America as represented by the …, priority 1992, dated 1997)
